Results published in patent publication US20120115754A1, “METHOD FOR DIAGNOSING AND/OR TYPING RENAL CELL CARCINOMA” (priority 2009, published 2012).

What was measured:
[1] = tested on: tumor kidney (RCC) tissue lysate, tyrosine kinase activity; test: Peptide microarray (PamChip) kinase activity profiling of tumor kidney lysate with kinase inhibitor added to the lysate; type: biochemical, human
Description: (§1) Both normal and tumor kidney tissue were derived from resection material immediately after surgery. These tissues were snap-frozen and were stored at −85° C. The tissues were cut in slices of 10 μm and stored. For protein extraction 6 slices were lysed in 100 μL of Mammalian Protein Extraction Buffer (M-PER), a lysis buffer containing HALT protease and phosphatase inhibitors, for 60 minutes on ice. The protein concentration was determined for each sample and for the analysis on a peptide microarray comprising 144 peptides typically 5 μg of protein was used. […]
(§2) To assess the effect of a kinase inhibitor, the kinase inhibitors sorafinib or sunitinib were added to the lysate before application onto the peptide microarray. During 60 cycles of pumping the lysate reaction mixture through the array, peptide phosphorylation was detected by the fluorescently labelled PY20 anti-phosphotyrosine antibody present in the lysate reaction mixture. Real time data were obtained by measuring fluorescence of the bound anti-phosphotyrosine antibody after each 5 cycles. […] Signals for each spot on the image were quantified. Image quantification and data processing was conducted with dedicated PamGene software (Evolve and Bionavigator). […]

[2] = tested on: normal kidney tissue (NK) lysate, tyrosine kinase activity; test: Peptide microarray (PamChip) kinase activity profiling of normal kidney lysate with kinase inhibitor added to the lysate; type: biochemical, human
Description: as §1, §2

SMILES: CNC(=O)c1cc(Oc2ccc(NC(=O)Nc3ccc(Cl)c(C(F)(F)F)c3)cc2)ccn1 [sorafinib, sorafenib]
- phosphorylation pattern compared to the control (DMSO) ([1]; lysate of tumor kidney (RCC) tissue of one patient, inhibitor pipetted into lysate, FIG. 4 heatmap): decreased phosphorylation pattern
- inhibition of peptide phosphorylation, peptides indicated by downwards arrows ([1]; tumor tissue, on-chip treatment, in comparison to other peptides, FIG. 4): highly inhibited
- phosphorylation pattern compared to the control (DMSO) ([2]; lysate of normal kidney tissue (NK) of one patient, inhibitor pipetted into lysate, FIG. 4 heatmap): decreased phosphorylation pattern
- inhibition of peptide phosphorylation, peptides indicated by upward arrows ([2]; normal tissue, on-chip treatment, candidate markers for off-target effects, FIG. 4): show inhibition
